What was measured:
[1] = tested on: HCT-116 colon cancer cell lines; assay: Invasion Assay using Matrigel, HCT-116; type: cell-based, human; settings: HCT-116, Matrigel invasion, 24 hours treatment
Protocol: To evaluate the metastasis inhibitory efficacy of the compounds of the present invention on HCT-116 colon cancer cell lines, an Invasion Assay using Matrigel was performed to assess the cells' invasion ability.
First, Matrigel was thawed on ice in RPMI-1640 medium without FBS, then diluted with DMEM at a ratio of 1:20.
The diluted Matrigel mixture was applied to the upper chamber at 100 μl per well, and 750 μl of RPMI-1640 without FBS was added to the lower chamber.
The plates were then incubated at 37° C. for 1 hour to allow the Matrigel to solidify.
After coating, the Matrigel mixture in the upper chamber was removed using a pipette, and the chamber was washed with RPMI without FBS.
Human-derived colorectal cancer cell line HCT-116, obtained from the Korean Cell Bank, was cultured in RPMI-1640 medium containing 10% FBS.
Following stabilization, the cells were harvested using Trypsin-EDTA treatment, centrifuged at 1,200 rpm for 3 minutes, the supernatant was removed, and the cells were resuspended in the same medium, the medium in the lower chamber was replaced with 750 μl of RPMI-1640 supplemented with 10% FBS, and the cells were seeded into the upper chamber at a density of 5×10^4 cells/well.
The cells were cultured for 24 hours after attachment, and then the compounds according to the present invention (G078, G085, G086, G088, G089, PBK-2024-010, PBK-2025-010, PBK-2025-013, PBK-2025-016) and the control substance DMSO were diluted and added to the upper chamber after removing the medium.
Additionally, the medium in the lower chamber was replaced with fresh RPMI-1640 containing FBS, and the culture was continued.
After an additional 24 hours, the medium was removed, and 1 ml of methanol was added for 10 minutes to fix the cells.
Subsequently, 1 ml of Hematoxylin was added and reacted for 5 minutes, followed by 1 ml of Eosin, which was reacted for 30 seconds. The sample was then washed with distilled water (DW).
After staining was complete, any remaining cells in the upper chamber were removed. Finally, the infiltrated cells were observed under a microscope, photographed, and the degree of infiltration was analyzed.

[2] = tested on: Human B Lymphocyte cell line, SU-DHL-8; assay: Relative cell viability, CCK-8, SU-DHL-8; type: cell-based; settings: 48 hours
Protocol: Human-derived B lymphoma cell line SU-DHL-8 (Cat. #CRL-2961) purchased from ATCC was cultured in RPMI-1640 medium containing 10% FBS, 100 U/mL penicillin, and 100 μg/mL streptomycin.
The cell culture medium was then harvested, centrifuged at 1,300 rpm for 5 minutes, and the supernatant was removed. The cells were resuspended in the same medium and dispensed into a 96-well plate (Costar 96-well cell culture plate, Corning) at 90 μL per well, resulting in the conditions specified in Table 5.
Then, 10 μL of CCK-8 was added to each well, and the plates were incubated again at 37° C. in a 5% CO2 incubator for 4 hours.
In other words, when the survival rate of untreated cells (DMSO) is set at 100%, the relative cell survival rate in each group treated with the drug at different concentrations is indicated.

[3] = tested on: T cells isolated from mouse spleen; assay: T cell proliferation inhibition, CFSE flow cytometry, CD3/CD28 activation; type: cell-based; settings: CD3/CD28 activated, 3 days
Protocol: To verify the T cell proliferation inhibitory effect of the compounds according to the present invention, the following experiment was performed based on flow cytometry analysis using carboxyfluorescein diacetate succinimidyl ester (CFSE), a fluorescent dye that binds to intracellular molecules via covalent bonds.
Spleens were extracted from 7-week-old C57BL/6 mice, ground, and then separated into single cells using a strainer (40 μm pore size, SPL). Red blood cells were removed using ACK (Ammonium-Chloride-Potassium) lysis buffer to isolate white blood cells.
Finally, using a MACS Magnetic Stand and LS column, T cells were isolated from the spleen.
The T cells isolated from the spleen were resuspended in 1 mL of free medium (RPMI-1640+200 U/mL penicillin+200 μg/mL streptomycin), and 0.3 μL of CFSE (10 mM) was added. The mixture was incubated at 37° C. for 5 minutes.
Free medium (10 mL) was added to stop the reaction, and the cells were centrifuged to obtain the cell pellet.
RPMI 1640 medium containing 10% FBS, 100 U/mL penicillin, 100 μg/mL streptomycin, and resuspended the cells. The cells were then seeded into a 96-well plate at a density of 2×10^5 cells per well and activated with CD3 and CD28 antibodies (0.5 μg/mL each) to activate T cells.
The compound diluted in DMSO was added at concentrations of 10 nM, 100 nM, 1 μM, 10 μM, 30 μM, and 50 μM, with three wells per concentration, and cultured at 37° C. and 5% CO2 for three days. The cells were then analyzed using a FACS Canto instrument.
The proliferation inhibition rate (%) was calculated using the following formula: […]

| SMILES | number of infiltrated cells [1] | Relative cell viability (%) ([2]; SU-DHL-8, 1 μM) | Relative cell viability (%) ([2]; SU-DHL-8, 10 μM) | Relative cell viability (%) ([2]; SU-DHL-8, 30 μM) | Relative cell viability (%) ([2]; SU-DHL-8, 50 μM) | Proliferation inhibition rate (%) ([3]; compound 100 nM) | Proliferation inhibition rate (%) ([3]; compound 1 μM) | Proliferation inhibition rate (%) ([3]; compound 10 μM) | Proliferation inhibition rate (%) ([3]; compound 30 μM) | Proliferation inhibition rate (%) ([3]; compound 50 μM) | Proliferation inhibition rate (%) ([3]; compound 10 nM) |
| --- | --- | --- | --- | --- | --- | --- | --- | --- | --- | --- | --- |
| Nc1ncccc1C(=O)NCCCCCCCCCCCCN1CCNCC1 [Compound 5, 2-Amino-N-(12-(piperazin-1-yl)dodecyl)-nicotinamide] | reduction in the number of infiltrated cells |  |  |  |  |  |  |  |  |  |  |
| CN1CCN(C(=O)OC(C)(C)C)CC1CCCCCCCCNC(=O)c1cccnc1N (centres unmarked) [Compound 12, tert-Butyl 3-(8-(2-aminonicotinamide)octyl)-4-methylpiperazine-1-carboxylate] |  | 7.60 | 3.79 | 1.64 | 1.13 |  |  |  |  |  |  |
| CC1CN(CCCCCCCCCCCCNC(=O)c2cccnc2N)CC(C)O1 (centres unmarked) [Compound 21, 2-Amino-N-(12-(2,6-dimethylmorpholino)dodecyl) nicotinamide] |  |  |  | 3.70 |  | 100.00 | 100.00 | 100.00 | 100.00 | 100.00 |  |
| O=C(NCCCCCCCCCCCCN1CCN2CCCC2C1)c1cccnc1 (centres unmarked) [Compound 23, N-(12-(hexahydropyrrolo[1,2-a]pyrazin-2 (1H)-yl)dodecyl)nicotinamide] | reduction in the number of infiltrated cells |  |  |  |  |  |  |  |  |  |  |
| CC1CCN(CCCCCCCCCCCCNC(=O)c2cccnc2N)C1 (centres unmarked) [Compound 24, 2-Amino-N-(12-(3-methylpyrrolidin-1-yl)dodecyl) nicotinamide] |  |  |  | 0.62 |  | 100.00 | 100.00 | 100.00 | 100.00 | 100.00 |  |
| Nc1ncccc1C(=O)NCCCCCCCCCCCCN1CCS(=O)(=O)CC1 [Compound 25, 2-Amino-N-(12-(1,1-dioxidothiomorpholino)dodecyl) nicotinamide] |  |  |  | 0.11 | 0.95 |  | 100.00 | 100.00 | 100.00 | 100.00 |  |
| Nc1ncccc1C(=O)NCCCCCCCCCCCCN1CCC(F)C1 (centres unmarked) [Compound 26, 2-Amino-N-(12-(3-fluoropyrrolidin-1-yl)dodecyl) nicotinamide] |  | 1.70 |  | 0.05 |  | 100.00 | 100.00 | 100.00 | 100.00 | 100.00 |  |
| CC1CNCCN1CCCCCCCCCCCCNC(=O)c1cccnc1N (centres unmarked) [Compound 35, 2-Amino-N-(12-(2-methylpiperazin-1-yl)dodecyl) nicotinamide] |  |  | 0.64 | 0.42 |  | 100.00 | 100.00 | 100.00 | 100.00 | 100.00 |  |
| Nc1ncccc1C(=O)NCCCCCCCCCCCCN1CCC(Oc2ccncc2)CC1 [Compound 38, 2-Amino-N-(12-(4-(pyridin-4-yloxy)piperidin-1-yl)dodecyl) nicotinamide] |  |  | 3.30 |  |  | 100.00 | 100.00 | 100.00 | 100.00 | 100.00 |  |
| CC(C)(C)OC(=O)N[C@H]1CCN(CCCCCCCCCCCCNC(=O)c2cccnc2N)C1 [Compound 49, tert-Butyl(S)-(1-(12-(2-aminonicotinamido)dodecyl)pyrrolidin-3-yl)carbamate] | reduction in the number of infiltrated cells |  |  |  |  |  |  |  |  |  |  |
| Cl.Nc1ncccc1C(=O)NCCCCCCCCCCCCN1CC[C@H](N)C1 [Compound 50, (S)-2-Amino-N-(12-(3-aminopyrrolidin-1-yl)dodecyl) nicotinamide Hydrochloride] |  | 9.20 |  |  |  | 100.00 | 100.00 | 100.00 | 100.00 | 100.00 |  |
| Cc1ccc(OC2CCN(CCCCCCCCCCCCNC(=O)c3cccnc3N)CC2)cc1 [Compound 51, 2-Amino-N-(12-(4-(p-tolyloxy)piperidin-1-yl)dodecyl) nicotinamide] |  |  |  | 0.89 | 0.48 |  | 100.00 | 100.00 | 100.00 | 100.00 | 0.77 |
| Nc1ncccc1C(=O)NCCCCCCCCCCCCN1CC(F)C1 [Compound 52, 2-Amino-N-(12-(3-fluoroazetidin-1-yl)dodecyl)nicotinamide] | reduction in the number of infiltrated cells |  |  |  |  |  |  |  |  |  |  |
| Cc1ccc(C2CCN(CCCCCCCCCCCCNC(=O)c3cccnc3N)CC2)cc1 [Compound 55, 2-Amino-N-(12-(4-(p-tolyl)piperidin-1-yl)dodecyl) nicotinamide] |  |  |  | 1.10 | 0.97 | 100.00 | 100.00 | 100.00 | 100.00 | 100.00 |  |
| Nc1ncccc1C(=O)NCCCCCCCCCCCCN1CCOC1=O [Compound 127, 2-amino-N-(12-(2-oxooxazolidin-3-yl)dodecyl) nicotinamide] |  |  |  |  |  |  |  | 100.00 | 100.00 | 100.00 |  |
| Nc1ncccc1C(=O)NCCCCCCCCCCCCNC1CCOC1 (centres unmarked) [Compound 128, 2-amino-N-(12-((tetrahydrofuran-3-yl)amino)dodecyl) nicotinamide] |  |  |  |  |  | 100.00 | 100.00 | 100.00 | 100.00 | 100.00 |  |
| Nc1ncccc1C(=O)NCCCCCCCCCCCCN1CC=CC1 [Compound 129, 2-amino-N-(12-(2,5-dihydro-1H-pyrrol-1-yl)dodecyl) nicotinamide] |  |  |  |  |  | 90.00 | 100.00 | 100.00 | 100.00 | 100.00 | 0.00 |
